The target in the test is T1, human IL-17AA (Homo sapiens, UniProt Q16552).
T1 construct: host or cells: HEK (human embryonic kidney) cells
T1 sequence (Q16552 24-155) 1: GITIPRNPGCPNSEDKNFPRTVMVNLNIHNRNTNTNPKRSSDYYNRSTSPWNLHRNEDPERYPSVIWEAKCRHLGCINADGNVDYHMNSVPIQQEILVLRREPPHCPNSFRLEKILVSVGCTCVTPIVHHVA
T1 sequence (Q16552 24-155) 2: T1 sequence (Q16552 24-155) 1
Put plainly: IL-8 release assay in human epithelial keratinocytes adult (HEKa). It counts as cell-based. The note with it: 3 ng/ml human IL-17AA + 10 ng/ml human TNFalpha, 68-72 h, IL-8 by HTRF, read-out: Rel EC50 L-8 release assay. An outline of the steps:
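IL-8 secretion, quantified by HTRF (665/620 nm) as percent of controls, served as the readout after 68–72 h culture of HEKa cells with compound plus IL-17AA (3 ng/ml final) and TNF-alpha (10 ng/ml final). Four-parameter logistic curves gave relative IC50 and Emax.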
Consider `Cc1nn(C)cc1-c1ccc(NC(=O)[C@@H](NC(=O)C2(F)CC2)[C@@H]2CCc3ccc(-c4ccnc(N5C[C@@H]6C[C@H]5CO6)c4)cc32)cc1` [Example 372, N-[(1S)-2-[4-(1,3-dimethylpyrazol-4-yl)anilino]-1-[(1R)-6-[2-[(1S,4S)-2-oxa-5-azabicyclo[2.2.1]heptan-5-yl]-4-pyridyl]indan-1-yl]-2-oxo-ethyl]-1-fluoro-cyclopropanecarboxamide], for which the EC50 lay in the range of 0.1 to 1 µM.
In the case of `Cn1cnnc1-c1ccc(NC(=O)C(Cc2cc(-c3cccc(OC(F)F)c3)ccc2Cl)NC(=O)c2ccnn2C)cc1` (stereo not shown) [Example 112, N-[1-[[2-chloro-5-[3-(difluoromethoxy)phenyl]phenyl]methyl]-2-[4-(4-methyl-1,2,4-triazol-3-yl)anilino]-2-oxo-ethyl]-2-methyl-pyrazole-3-carboxamide] it was 0.1 to 1 µM.
In the case of `Cc1n[nH]c(C)c1-c1ccc(NC(=O)[C@@H](NC(=O)C2(F)CC2)[C@@H]2CCCc3ccc(-c4ccc(CN5C[C@H]6C[C@@H]5CO6)cc4)cc32)cc1` [Example 390, N-[(1S)-2-[4-(3,5-dimethyl-1H-pyrazol-4-yl)anilino]-1-[(1R)-7-[4-[[(1R,4R)-2-oxa-5-azabicyclo[2.2.1]heptan-5-yl]methyl]phenyl]tetralin-1-yl]-2-oxo-ethyl]-1-fluoro-cyclopropanecarboxamide] it was 0.1 to 1 µM; in that of `CC(C)n1cc(-c2ccc(Cl)c(C[C@H](NC(=O)C3(F)CCC3)C(=O)Nc3ccc(-c4cncn4C)cc3)c2)ccc1=O` [Example 147, N-[(1S)-1-[[2-chloro-5-(1-isopropyl-6-oxo-3-pyridyl)phenyl]methyl]-2-[4-(3-methylimidazol-4-yl)anilino]-2-oxo-ethyl]-1-fluoro-cyclobutanecarboxamide], 0.1 to 1 µM; in that of `Cn1cnnc1-c1ccc(NC(=O)C(Cc2cc(-c3ccnc(CC(C)(C)O)c3)ccc2Cl)NC(=O)c2ccnn2C)cc1` (stereo not shown) [Example 64, N-[1-[[2-chloro-5-[2-(2-hydroxy-2-methyl-propyl)-4-pyridyl]phenyl]methyl]-2-[4-(4-methyl-1,2,4-triazol-3-yl)anilino]-2-oxo-ethyl]-2-methyl-pyrazole-3-carboxamide], above 1 µM.
For `Cc1cnn(C)c1-c1ccc(NC(=O)[C@@H](NC(=O)C2(F)CC2)[C@@H](c2cccc(-c3cncc(N4C[C@@H]5C[C@H]4CO5)n3)c2)C2CC2)cc1` [Example 350, N-[(1S)-1-[(R)-cyclopropyl-[3-[6-[(1S,4S)-2-oxa-5-azabicyclo[2.2.1]heptan-5-yl]pyrazin-2-yl]phenyl]methyl]-2-[4-(2,4-dimethylpyrazol-3-yl)anilino]-2-oxo-ethyl]-1-fluoro-cyclopropanecarboxamide] the value was below 0.1 µM; for `Cn1cncc1-c1ccc(NC(=O)C(Cc2cc(-c3ccnc(N4CC5(COC5)C4)c3)ccc2Cl)NC(=O)c2ccnn2C)cc1` (stereo not shown) [Example 183, N-[1-[[2-chloro-5-[2-(6-oxa-2-azaspiro[3.3]heptan-2-yl)-4-pyridyl]phenyl]methyl]-2-[4-(3-methylimidazol-4-yl)anilino]-2-oxo-ethyl]-2-methyl-pyrazole-3-carboxamide], 0.1 to 1 µM; for `CC(C)n1cc(-c2ccc3c(c2)[C@H]([C@H](NC(=O)c2ccnn2C)C(=O)Nc2ccc(-c4cncn4C)cc2)CCC3)ccc1=O` [Example 30, N-[(1S)-1-[(1R)-7-(1-isopropyl-6-oxo-3-pyridyl)tetralin-1-yl]-2-[4-(3-methylimidazol-4-yl)anilino]-2-oxo-ethyl]-2-methyl-pyrazole-3-carboxamide], below 0.1 µM.
`Cc1n[nH]c(C)c1-c1ccc(NC(=O)[C@@H](NC(=O)C2(F)CC2)[C@@H]2CCc3ccc(-c4cncc(N5C[C@@H]6C[C@H]5CO6)c4)cc32)cc1` [Example 377, N-[(1S)-2-[4-(3,5-dimethyl-1H-pyrazol-4-yl)anilino]-1-[(1R)-6-[5-[(1S,4S)-2-oxa-5-azabicyclo[2.2.1]heptan-5-yl]-3-pyridyl]indan-1-yl]-2-oxo-ethyl]-1-fluoro-cyclopropanecarboxamide]: the EC50 is below 0.1 µM.
For `Cc1n[nH]c(C)c1-c1ccc(NC(=O)[C@@H](NC(=O)c2ccnn2C)[C@@H]2CCCc3ccc(-c4ccc5c(c4)CN(C)C5)cc32)cc1` [Example 37, N-[(1S)-2-[4-(3,5-dimethyl-1H-pyrazol-4-yl)anilino]-1-[(1R)-7-(2-methylisoindolin-5-yl)tetralin-1-yl]-2-oxo-ethyl]-2-methyl-pyrazole-3-carboxamide] the value was below 0.1 µM; for `CC(C)n1cc(-c2cccc(C(c3ccccc3)C(NC(=O)c3ccnn3C)C(=O)Nc3ccc(-c4cncn4C)cc3)c2)ccc1=O` (single isomer, unassigned; diastereomer 2) [Example 232, N-[1-[[3-(1-isopropyl-6-oxo-3-pyridyl)phenyl]-phenyl-methyl]-2-[4-(3-methylimidazol-4-yl)anilino]-2-oxo-ethyl]-2-methyl-pyrazole-3-carboxamide (Diastereomer 2)], above 1 µM.
In the case of `CC(C)n1cc(-c2ccc(Cl)c(C[C@H](NC(=O)[C@H]3CC3(F)F)C(=O)Nc3ccc(-c4nncn4C)cc3)c2)ccc1=O` [Example 288, (1R)-N-[(1S)-1-[[2-chloro-5-(1-isopropyl-6-oxo-3-pyridyl)phenyl]methyl]-2-[4-(4-methyl-1,2,4-triazol-3-yl)anilino]-2-oxo-ethyl]-2,2-difluoro-cyclopropanecarboxamide] it was above 1 µM; in that of `CC(c1cc(-c2ccc(=O)n(C(C)C)c2)ccc1Cl)C(NC(=O)c1ccnn1C)C(=O)Nc1ccc(-c2cncn2C)cc1` (stereo not shown) [Example 55, N-[2-[2-chloro-5-(1-isopropyl-6-oxo-3-pyridyl)phenyl]-1-[[4-(3-methylimidazol-4-yl)phenyl]carbamoyl]propyl]-2-methyl-pyrazole-3-carboxamide], above 1 µM.
In the case of `Cc1nocc1C(=O)NC(Cc1cc(-c2ccc(=O)n(C3CC3)c2)ccc1Cl)C(=O)Nc1ccc(-c2nncn2C)cc1` (stereo not shown) [Example 63, N-[1-[[2-chloro-5-(1-cyclopropyl-6-oxo-3-pyridyl)phenyl]methyl]-2-[4-(4-methyl-1,2,4-triazol-3-yl)anilino]-2-oxo-ethyl]-3-methyl-isoxazole-4-carboxamide] it was above 1 µM; in that of `Cc1n[nH]c(C)c1-c1ccc(NC(=O)[C@@H](NC(=O)c2ccnn2C)[C@@H]2CCc3ccc(-c4cnn(C5CCC5)c4)cc32)cc1` [Example 5, N-[(1S)-1-[(1R)-6-(1-cyclobutylpyrazol-4-yl)indan-1-yl]-2-[4-(3,5-dimethyl-1H-pyrazol-4-yl)anilino]-2-oxo-ethyl]-2-methyl-pyrazole-3-carboxamide], below 0.1 µM; in that of `Cc1n[nH]c(C)c1-c1ccc(NC(=O)[C@H](Cc2cc(-c3ccc(CN4C[C@@H]5C[C@H]4CN5)cc3)ccc2Cl)NC(=O)C2(F)CC2)cc1` [Example 229, N-[(1S)-1-[[2-chloro-5-[4-[[(1S,4S)-2,5-diazabicyclo[2.2.1]heptan-2-yl]methyl]phenyl]phenyl]methyl]-2-[4-(3,5-dimethyl-1H-pyrazol-4-yl)anilino]-2-oxo-ethyl]-1-fluoro-cyclopropanecarboxamide], 0.1 to 1 µM.
